Measured values reported in ChEMBL document CHEMBL3991601, “The target landscape of clinical kinase drugs” (Science, 2017).
Calls of active or inactive are those of the source.

Assays:
[1] = target: T1, Glycogen phosphorylase, liver form (Homo sapiens, UniProt P06737); format: subcellular, K-562, COLO 205, SK-N-BE(2) and MV-4-11, Cell lysate; details: read-out: Kd apparent
T1 sequence (P06737 whole entry): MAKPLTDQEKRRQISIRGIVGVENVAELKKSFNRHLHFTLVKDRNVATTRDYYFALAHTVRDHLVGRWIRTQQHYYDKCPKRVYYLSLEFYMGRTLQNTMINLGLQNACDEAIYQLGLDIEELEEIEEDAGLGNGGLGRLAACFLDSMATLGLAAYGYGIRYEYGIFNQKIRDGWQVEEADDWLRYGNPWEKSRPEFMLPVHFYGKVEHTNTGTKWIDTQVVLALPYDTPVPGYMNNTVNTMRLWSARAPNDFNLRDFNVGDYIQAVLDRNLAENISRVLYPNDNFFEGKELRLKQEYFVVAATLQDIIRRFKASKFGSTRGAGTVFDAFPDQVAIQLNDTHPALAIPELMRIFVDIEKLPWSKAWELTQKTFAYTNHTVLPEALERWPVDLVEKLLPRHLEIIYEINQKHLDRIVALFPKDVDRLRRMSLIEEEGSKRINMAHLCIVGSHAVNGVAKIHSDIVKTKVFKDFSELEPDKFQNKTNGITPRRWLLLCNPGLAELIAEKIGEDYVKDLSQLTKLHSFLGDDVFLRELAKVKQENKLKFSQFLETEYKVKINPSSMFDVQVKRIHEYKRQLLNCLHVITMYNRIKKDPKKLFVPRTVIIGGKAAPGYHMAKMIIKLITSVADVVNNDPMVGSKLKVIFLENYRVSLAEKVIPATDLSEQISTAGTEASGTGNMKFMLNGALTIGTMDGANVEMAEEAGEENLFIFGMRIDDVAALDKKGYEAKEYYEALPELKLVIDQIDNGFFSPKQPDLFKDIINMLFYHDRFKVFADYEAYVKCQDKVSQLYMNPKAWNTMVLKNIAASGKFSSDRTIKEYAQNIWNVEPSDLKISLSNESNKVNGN

[2] = target: T2, Mitogen-activated protein kinase kinase kinase kinase 2 (Homo sapiens, UniProt Q12851)
T2 sequence (Q12851 whole entry): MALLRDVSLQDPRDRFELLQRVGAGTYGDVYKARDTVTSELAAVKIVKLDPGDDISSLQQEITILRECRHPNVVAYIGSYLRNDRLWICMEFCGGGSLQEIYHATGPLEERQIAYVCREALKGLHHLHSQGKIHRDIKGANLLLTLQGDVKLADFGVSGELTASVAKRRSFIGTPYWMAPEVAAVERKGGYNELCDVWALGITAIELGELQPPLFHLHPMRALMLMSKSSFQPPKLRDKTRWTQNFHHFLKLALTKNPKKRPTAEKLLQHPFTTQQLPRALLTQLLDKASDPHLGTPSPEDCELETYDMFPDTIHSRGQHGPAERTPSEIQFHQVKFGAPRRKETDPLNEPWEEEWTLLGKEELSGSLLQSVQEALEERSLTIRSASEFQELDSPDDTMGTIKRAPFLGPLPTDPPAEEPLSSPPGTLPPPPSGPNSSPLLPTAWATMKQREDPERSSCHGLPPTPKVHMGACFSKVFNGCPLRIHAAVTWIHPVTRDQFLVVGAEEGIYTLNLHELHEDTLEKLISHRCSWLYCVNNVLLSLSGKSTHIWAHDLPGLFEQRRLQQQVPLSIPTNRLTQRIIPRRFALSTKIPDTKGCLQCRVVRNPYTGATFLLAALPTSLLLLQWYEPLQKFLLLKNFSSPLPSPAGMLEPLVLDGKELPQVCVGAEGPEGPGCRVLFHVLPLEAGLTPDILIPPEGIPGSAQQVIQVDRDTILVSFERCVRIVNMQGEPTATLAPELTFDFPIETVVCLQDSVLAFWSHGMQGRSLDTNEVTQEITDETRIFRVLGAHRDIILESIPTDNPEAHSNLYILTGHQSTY

Septin-9 = target: T3, Septin-9 (Homo sapiens, UniProt Q9UHD8)
T3 sequence (Q9UHD8 whole entry): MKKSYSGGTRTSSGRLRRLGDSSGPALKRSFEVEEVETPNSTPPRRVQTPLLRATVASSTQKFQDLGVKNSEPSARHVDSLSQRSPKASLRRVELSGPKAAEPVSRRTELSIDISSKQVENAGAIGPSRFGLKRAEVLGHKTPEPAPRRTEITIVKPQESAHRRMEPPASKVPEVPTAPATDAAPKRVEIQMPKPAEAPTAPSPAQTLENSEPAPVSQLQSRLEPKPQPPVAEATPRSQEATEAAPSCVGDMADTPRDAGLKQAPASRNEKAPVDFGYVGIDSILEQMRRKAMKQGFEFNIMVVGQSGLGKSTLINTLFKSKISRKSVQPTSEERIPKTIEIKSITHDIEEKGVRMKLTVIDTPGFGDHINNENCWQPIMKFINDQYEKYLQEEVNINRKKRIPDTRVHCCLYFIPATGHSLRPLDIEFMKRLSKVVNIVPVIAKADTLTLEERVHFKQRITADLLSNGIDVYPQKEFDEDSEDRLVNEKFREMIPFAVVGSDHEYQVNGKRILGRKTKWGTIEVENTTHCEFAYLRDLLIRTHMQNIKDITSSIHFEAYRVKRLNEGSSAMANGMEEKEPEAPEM

DNA topoisomerase 2-beta = DNA topoisomerase 2-beta (Homo sapiens, UniProt Q02880)
DNA topoisomerase 2-beta, sequence (Q02880 whole entry): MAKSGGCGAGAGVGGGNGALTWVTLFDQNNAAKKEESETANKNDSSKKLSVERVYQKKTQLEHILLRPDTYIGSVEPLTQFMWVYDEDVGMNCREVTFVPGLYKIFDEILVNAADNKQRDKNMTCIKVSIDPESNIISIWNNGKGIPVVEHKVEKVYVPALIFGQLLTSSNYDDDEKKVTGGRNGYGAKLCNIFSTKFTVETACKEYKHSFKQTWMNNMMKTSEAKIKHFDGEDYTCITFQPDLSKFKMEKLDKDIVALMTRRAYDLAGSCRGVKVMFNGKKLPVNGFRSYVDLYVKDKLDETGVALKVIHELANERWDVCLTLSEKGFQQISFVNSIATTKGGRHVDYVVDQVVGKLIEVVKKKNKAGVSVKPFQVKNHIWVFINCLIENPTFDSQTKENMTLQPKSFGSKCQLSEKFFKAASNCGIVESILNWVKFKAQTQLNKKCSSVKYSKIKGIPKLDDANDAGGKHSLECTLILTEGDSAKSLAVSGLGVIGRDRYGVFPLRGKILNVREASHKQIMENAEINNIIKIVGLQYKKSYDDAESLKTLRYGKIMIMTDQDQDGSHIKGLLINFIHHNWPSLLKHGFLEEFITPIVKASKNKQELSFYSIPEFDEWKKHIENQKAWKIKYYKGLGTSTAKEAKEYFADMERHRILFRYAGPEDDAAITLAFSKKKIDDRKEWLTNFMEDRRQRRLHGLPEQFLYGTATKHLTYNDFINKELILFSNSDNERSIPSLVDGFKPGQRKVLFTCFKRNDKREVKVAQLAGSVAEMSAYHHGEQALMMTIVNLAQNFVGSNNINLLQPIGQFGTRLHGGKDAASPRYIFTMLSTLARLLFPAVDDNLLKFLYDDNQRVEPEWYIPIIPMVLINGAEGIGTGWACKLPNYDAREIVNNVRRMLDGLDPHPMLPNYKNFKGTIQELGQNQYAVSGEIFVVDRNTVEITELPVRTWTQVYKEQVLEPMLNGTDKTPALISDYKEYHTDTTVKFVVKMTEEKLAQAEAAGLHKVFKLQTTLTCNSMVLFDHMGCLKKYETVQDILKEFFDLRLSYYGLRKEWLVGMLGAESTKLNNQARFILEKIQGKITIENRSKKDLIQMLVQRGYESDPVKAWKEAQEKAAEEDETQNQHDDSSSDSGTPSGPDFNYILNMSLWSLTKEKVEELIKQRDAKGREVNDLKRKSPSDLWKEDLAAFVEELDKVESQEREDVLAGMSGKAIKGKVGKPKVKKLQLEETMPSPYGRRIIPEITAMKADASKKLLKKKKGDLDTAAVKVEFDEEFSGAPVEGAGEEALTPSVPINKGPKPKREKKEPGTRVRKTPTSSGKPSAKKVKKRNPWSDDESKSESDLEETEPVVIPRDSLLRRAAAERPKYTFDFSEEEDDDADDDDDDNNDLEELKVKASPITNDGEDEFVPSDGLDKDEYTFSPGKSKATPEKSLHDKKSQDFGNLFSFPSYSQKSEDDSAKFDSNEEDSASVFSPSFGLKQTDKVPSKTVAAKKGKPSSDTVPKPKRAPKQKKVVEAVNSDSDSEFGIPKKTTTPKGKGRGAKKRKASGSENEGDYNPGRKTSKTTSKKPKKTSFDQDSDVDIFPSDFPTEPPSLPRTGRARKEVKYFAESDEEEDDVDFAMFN
Also: in the data inactive means no Kd found up to 30 µM.

Kd [1]: > 30 µM (inactive) | Kd [2]: > 30 µM (inactive) | Kd (Septin-9): > 30 µM (inactive) | Kd (DNA topoisomerase 2-beta): > 30 µM (inactive)
Structure (SMILES): C#Cc1cccc(Nc2ncnc3cc4c(cc23)OCCOCCOCCO4)c1 [ICOTINIB]
